Assay results from patent US20220305051A1 (priority 2019, published 2022).

Columns and labels:
oral NR activity [1] = system: oral NR activity; set-up: species or system mice; conditions: mouse, in vivo
[2] = set-up: species or system mice; conditions: mouse, in vivo
[3] = system: tongue and lung microbiome; set-up: species or system mice; conditions: mouse, in vivo
[4] = system: C57bl/6 mice exposed to Cl2, Br2 or COCl2; conditions: mouse, in vivo
[5] = mouse, in vivo
P. Aeruginosa = system: P. Aeruginosa; set-up: species or system mice; conditions: mouse, in vivo
[6] = system: C57bl/6 mice exposed to Br2; conditions: mouse, in vivo
[7] = system: C57bl/6 mice exposed to Br2; conditions: mouse, in vivo; remark: listed apart in the source
oral NR activity [8] = system: oral NR activity; set-up: species or system mice; conditions: mouse, in vivo; remark: listed apart in the source

Molecule: [H]/N=C(\N/C(=N/[H])NCCCCCCNC(=N)NC(=N)Nc1ccc(Cl)cc1)Nc1ccc(Cl)cc1 [chlorhexidine]
- Inhibition of NR activity (oral NR activity [1]): ~70%
- Decrease of plasma nitrite [2]: 50%
- Decrease in abundance of 7 bacteria on the tongue [3]: > 50%
- Decrease of the one altered bacterial species in the lung microbiome [3]: ~30%
- Increase in severity of Br2 and COCl2 lung injury [4]: 1.5-2.5 fold
- Increase in severity of Cl2 lung injury [4]: close to significant effects
- Lung injury, chlorhexidine alone [4]: no effect on lung injury

Molecule: O=[N+]([O-])O [nitrate]
- Plasma nitrite and cGMP [5]: will temporally increase plasma nitrite and cGMP
- Plasma nitrite levels [5]: increase

Molecule: O=NO [nitrite, sodium nitrite]
- Protection against ALI and P. aeruginosa infection (P. Aeruginosa): protects against ALI and P. aeruginosa infection
- Susceptibility to P. aeruginosa infection (bacterial burden in lung homogenates) (P. Aeruginosa): decreases susceptibility to P. aeruginosa infection
- Survival over 10 days (Kaplan Meier) [6]: improved survival early
- Decrease of BAL neutrophil [7]: 50%

Molecule: bromine [Br2]
- Bacterial number (CFU) (oral NR activity [8]): not different
- NR activity normalized per bacterial number (oral NR activity [8]): significantly inhibited

B1: hemopexin: a heme-scavenger; scavenges free heme (protein, UniProt P02790 24-462, looked up)
Hemopexin: TPLPPTSAHGNVAEGETKPDPDVTERCSDGWSFDATTLDDNGTMLFFKGEFVWKSHKWDRELISERWKNFPSPVDAAFRQGHNSVFLIKGDKVWVYPPEKKEKGYPKLLQDEFPGIPSPLDAAVECHRGECQAEGVLFFQGDREWFWDLATGTMKERSWPAVGNCSSALRWLGRYYCFQGNQFLRFDPVRGEVPPRYPRDVRDYFMPCPGRGHGHRNGTGHGNSTHHGPEYMRCSPHLVLSALTSDNHGATYAFSGTHYWRLDTSRDGWHSWPIAHQWPQGPSAVDAAFSWEEKLYLVQGTQVYVFLTKGGYTLVSGYPKRLEKEVGTPHGIILDSVDAAFICPGSSRLHIMAGRRLWWLDLKSGAQATWTELPWPHEKVDGALCMEKSLGPNSCSANGPGLYLIHGPNLYCYSDVEKLNAAKALPQPQNVTSLLGCTH
- Protection against ALI and P. aeruginosa infection (P. Aeruginosa): protects against ALI and P. aeruginosa infection
- Survival over 10 days (Kaplan Meier) [6]: improved survival
